For three molecules, IC50 results are on record in ChEMBL document CHEMBL5727772, “Substituted 3,4,5,6,8,10,14,14a-octahydro-2h-2,6-methanopyrido[1′,2′:4,5]pyrazino[2,1-b][1,3]oxazocines and methods for treating viral infections” (2020).

By IC50 is commonly meant the concentration that gives 50% inhibition.

The structures appear in SMILES notation.

This assay can be described thus: 24 hours prior to assay, media containing 5 mM sodium butyrate were added to MDCKII cells in flasks, and cells were grown to 80-90% confluence. On assay day, cells were trypsinized and resuspended in Krebs-Henseleit Buffer (KHB), pH 7.4 at 5×10^6 […] cells/mL. Cells were preincubated for 15 min in assay plate before addition of test compound or substrate.Test compounds were serially diluted in DMSO and then spiked (2 μL) into in 0.4 mL KHB buffer containing wild-type or OCT2-transfected cells and incubated for 10 minutes. Assay was initiated with the addition of 0.1 mL of 100 μM 14C-TEA in KHB buffer (20 μM final concentration after mixing). The concentration of TEA is based on the Km. After 10 minutes of incubation, the assay mixture was quenched with addition of 0.5 mL of ice-cold 1×PBS buffer. Samples were then centrifuged at 1000 rpm for 5 min and supernatants were removed. Wash steps were repeated four times with ice-cold PBS. Finally, the cell pellets were lysed with 0.2N NaOH and let sit at room temperature for at least 30 min to ensure complete lysis. Particulars: MDCK-II.
With `O=C(NCc1cc(F)ccc1F)c1cn2c(cc1=O)C(=O)N1C3CCC(C3)C1C2` (stereo not drawn), the IC50 is 0.45 µM.
The same measure for `C[C@@H](NC(=O)c1cn2c(c(O)c1=O)C(=O)N1C(C2)O[C@@H]2CC[C@@H]1C2)c1ccc(F)cc1F` (stereo partly drawn): 0.61 µM; for `O=C(NCc1c(F)cc(F)cc1F)c1cn2c(c(O)c1=O)C(=O)N1C3CCC(C3)O[C@H]1C2` (stereo partly drawn): 0.137 µM.
